Reference: patent US11014934B2, “Antiseptic drug” (AO “TATKHIMFARMPREPARATY”, priority 2017, dated 2021)
≈ marks a conversion by molar mass, not a printed value.

Columns and labels:
E. coli CDC F-50 = assay: Antiseptic activity on rat skin; type: in vivo; conditions: E. coli CDC F-50 on rat skin; antiseptic concentration 0.2%; exposure time 5 min; n = 6
Procedure: The study of the antiseptic activity of compound I in rats […] was carried out in accordance with [R 4.2.2643-10 Metody laboratornykh issledovaniy i ispytaniy mediko-profilakticheskikh dezinfektsionnykh sredstv dlya otsenki ikh effektivnosti i bezopasnosti: Rukovodstvo.—M: Federal'nyy tsentr gigiyeny i epidemiologii Rospotrebnadzora, 2010.—S. 615. R 4.2.2643-10 Laboratory methods for the study and testing of medical prophylactic disinfectants to assess their effectiveness and safety: Guide.—M.:: Federal Center for Hygiene and Epidemiology of Rospotrebnadzor, 2010.—P. 615]. Experiments were carried out on male Wistar rats with a body weight of 180-250 g.
A culture of E. coli CDC F-50, grown on dense nutrient medium for (18-20) hours, was washed with sterile isotonic chloride solution, centrifuged at 5000 rpm for 5 minutes, the supernatant was drained and cells were resuspended with sterile isotonic sodium chloride solution.
The bacterial suspension of microorganisms was brought to a turbidity of […] according to McFarland, which corresponds to a concentration of 1.5×10^7 cells/ml.
Animals were formed in 5 groups of 6 animals each. All manipulations with animals were performed under isoflurane anesthesia (4%—induction of anesthesia (2 min, 1 l/min), 2%—basis narcosis). A portion of 5×5 cm was shaved with a hair clipper on the dorsal part of the body of the animal.
A 0.25 ml microbial suspension containing 1×10^7 CFU of E. coli CDC F-50 was applied to the shaved portion of the rat back with a dispenser and distributed with a sterile disposable spatula over the entire square area. It was left for 2-3 minutes until dry.
Then, a gauze cloth (5×5 cm) was applied to the skin of rats for 5 minutes. In the experimental group, the tissue was pre-wetted with 1 ml of 0.2% solution of compound I, and in the positive control groups, the tissue was dipped in 1 ml of 0.2% miramistin, benzalkonium chloride and chlorhexidine. In the negative control group, the cloth was immersed in 1 ml of sterile saline. […]
After the time required for the cultivation of microorganisms of this species, the results were counted according to the number of colonies grown on the Petri dish. […] After counting the number of colonies grown on Petri dishes, the density of contamination per 1 cm^2 of the surface and the percentage of disinfection were calculated, taking the number of colonies removed from control surfaces and not exposed to antiseptics action as 100%. The percentage of growth inhibition of E. coli CDC F-50 was calculated by the formula: […]

Stylonychia mytilus = assay: Antiprotozoal activity by death of protozoa; type: cell-based; conditions: death of protozoa
Procedure: Evaluation of the antiprotozoal activity of compound I was determined by the viability of the protozoa genus of hypotrichs Stylonychia mytilus in a nutrient medium in the presence of the studied substances. A mother liquor of compound I (10 mg/ml) was prepared in a mixture of DMSO and 96% ethanol (1:1). A 1% aqueous solution of DMSO and ethyl alcohol served as a negative control, and miramistin, benzalkonium chloride, and chlorhexidine were used as reference preparations. Then, from the mother liquors by repeated dilutions with water, working solutions were prepared corresponding to doses of 5; 10; 20; 25; 50; 75; 100 and 150 μg/ml. 10 μl of culture medium with protozoa and 10 μl of a solution of the test substance were applied to a chamber slide. The experiment was done in five replicates.
Slides were examined under a light microscope, antiprotozoal activity of substances (MIC and IC50) were determined by the death of protozoa. The Hill regression model with 5 parameters was used for the analysis.

For `[H]/N=C(\N/C(=N/[H])NCCCCCCNC(=N)NC(=N)Nc1ccc(Cl)cc1)Nc1ccc(Cl)cc1` [Chlorhexidine], the “Growth inhibition rate (M ± SD)” value (E. coli CDC F-50) was 95.7 ± 3.4%, the IC50 (Stylonychia mytilus; Hill regression, read-out: IC50 (95% confidence interval)) was 42 µg/mL (≈ 83.1 µM) and the MIC (Stylonychia mytilus; read-out: MIC) was 20 µg/mL (≈ 39.6 µM).
